In brackets after ≈: the same amount, converted by molar mass. Like-named read-outs stand apart in the source and are kept apart here.

Series [1] can be described thus: Physical stability on storage, analysed by XRPD. Format: physicochemical. As to conditions: 1.5 years at 4 °C under dry conditions. The procedure:
XRPD was performed using an X’Pert PANalytical PRO X-ray diffractometer (PANalytical, Almelo, The Netherlands) using Cu Kα radiation (λ = 1.54 Å), and an acceleration voltage and current of 45 kV and 40 mA, respectively. The powder samples were scanned in reflectance mode from 5° to 35° 2ϴ with a scan speed of 0.067° 2ϴ and a step size of 0.026° 2ϴ. Data were collected and analyzed using the software X’Pert Data Collector (PANalytical, Almelo, The Netherlands).
The co-amorphous binary DTX-BIC mixture as well as the pure individual amorphous drugs were stored in a desiccator under dry conditions (silica gel) at 4 °C and analysed by XRPD after 1.5 years of storage.

Series [2] is described as follows: In vivo pharmacokinetics study in fasted rats. Set-up: species or system Sprague Dawley rats. Particulars: for DTX AUC / BIC AUC: mean ± SEM. On the procedure: Healthy female and male Sprague Dawley rats of 7 weeks age weighing 140–240 g (Charles River, Denmark), were used for the experiments. The rats were housed with free access to water and food in groups of two rats per cage under controlled environmental conditions (constant temperature and humidity with a 12 h day-night cycle). All animal experimental work was carried out under the protocol approved by the Danish Animal Experiments Inspectorate (approval no. 2014-15-0201-00031), and all the procedures used were refined to provide maximal comfort and minimal stress to the animals.
All animals were fasted for approximately 12 h prior to administration of the drug formulations and food was provided to rats approximately 6 h after drug administration, although free access to water was allowed during fasting. The nine groups studied, each consisting of 6–8 rats, were assigned randomly and included two groups receiving an intravenous bolus injection of either DTX or BIC corresponding to 1 mg/rat (4–7 mg/kg) dissolved in saline: DMSO (50:50 v/v) with 1% Tween 80, administered in the tail vein. The remaining seven groups were orally administered with DTX or BIC or a combination of these at a fixed dose of 30 mg/kg for DTX and 16 mg/kg for BIC. For DTX, four groups of animals were studied, one group administered with crystalline DTX (crystalline), one group administered with a physical mixture of crystalline DTX and BIC (physical mix), one group administered with amorphous DTX (amorphous) and one group administered with the co-amorphous mixture of DTX and BIC (co-amorphous). For BIC three groups of animals were studied, one group administered with crystalline BIC (crystalline), one groups administered with a physical mixture of crystalline DTX and BIC (physical mix) and one group administered with the co-amorphous mixture of DTX and BIC (co-amorphous). Drug powders were suspended in 0.5 mL PBS and the suspension was immediately administered to the rats using a flexible cannula. Blood samples (150–200 µL) were collected in EDTA coated tubes from puncturing of the tail vein at 0.5, 1, 2, 4, 6 and 24 h after drug administration. The rats were euthanized by cervical dislocation after collection of the final blood sample. Plasma samples were obtained by centrifugation of blood samples at 3600 g (10 min, 4 °C) and transferred into microtubes. The plasma samples were stored at −80 °C until used for further analysis.
The bioanalysis of DTX and BIC in rat plasma was carried out using HPLC coupled with mass spectrometric (MS) detection. Prior to analysis liquid-liquid extraction was performed on the plasma samples (50 μL) by adding 100 μL of ethyl acetate and subsequently vortexing the vial for protein precipitation. The vials were centrifuged and 100 μL supernatant was carefully transferred to HPLC vials with inserts and evaporated using compressed air. The dried content of the vial was reconstituted using 150 μL ACN:H2O (1:1 v/v) and measured by LC-MS/MS.
LC-MS/MS analysis was performed using a 1290 Agilent Infinity Series system (Agilent Technologies, Palo Alto, CA, USA) coupled to an AB Sciex 4500 QTrap MS (Applied Biosystems, Foster City, CA, USA). A HPLC-MS method was developed for each compound. In both cases chromatographic separation was performed using a Phenomenex Kinetex (Torrance, CA, USA) C18 (50 × 2.1 mm, 2.6 μm) column with a Phenomenex C18 SecurityGuard™ Ultra (2.1 mm, 2 µm) guard column and the mobile phases consisted of (A) MilliQ water with 0.1% formic acid and (B) ACN with 0.1% formic acid. The column and autosampler tray were set at 40 °C and 6 °C, respectively, and the flow rate was set at 0.25 mL/min. The injection volume was set at 1 μL and 5 μL for BIC and DTX, respectively. For BIC, the elution gradient started at 20% B at time 0 and increased to […] at time 3.0 min. Hereafter B was held at 99% until 4.3 min before re-equilibrating the column until 5.5 min. The retention time for BIC was 3.12 min. […]

A short description of series [3]: Dissolution studies in FaSSIF biorelevant medium. Format: physicochemical. Particulars: 37 °C. The procedure: The concentrations of DTX and BIC were determined using a reversed-phase high-performance liquid chromatography (HPLC) system (Dionex Corporation, CA, USA) equipped with an ASI-100 autosampler, Dionex Ultimate 300 UV-Visible detector and pump. Chromatographic separation was achieved using a XB-C18 Phenomenex Kinetex column of 2.6 μm (2.1 × 50 mm) (Torrance, CA, USA) at 30 °C. The mobile-phase consisted of a mixture of A) 95% water 5% acetonitrile (ACN) and 0.1% trifluoroacetic acid (TFA) and B) 95% ACN 5% water 0.1% TFA, and was used at a flow rate of 0.5 mL/min in isocratic mode (60% A 40% B). Peaks were analysed at 270 nm for BIC and 230 nm for DTX. Linear calibration curves in the range of 0.25–5 μg/mL for both BIC and DTX were obtained in acetonitrile. Elution times were 4.8 min for BIC and 6.4 min for DTX.
For the dissolution studies, powder formulations were initially suspended in PBS in order to avoid powder agglomerates. Immediately after suspension, 100 µL aliquots were added to each well of a 12-well plate containing 2.9 mL dissolution medium/well. The concentrations of the drugs in the dissolution medium were 3 times higher than their respective saturation solubilities. […] The obtained samples were centrifuged at 10,000 g for 10 min and the supernatant was then analysed by HPLC (see above). […]

Details of series [4]: method as in Zhang et al. [20]. As to conditions: oral drug delivery strategy for DTX (cyclodextrin-based polymeric micelle), mice, ref Zhang et al. [20]; cited from earlier work.
Series [5] is described as follows: Saturation solubility studies in FaSSIF. Format: physicochemical. As to conditions: crystalline drugs, FaSSIF pH 6.5, after 72 h with excess drug powder. The procedure: DTX and BIC saturation solubility studies were conducted in FaSSIF. The biorelevant FaSSIF medium was prepared by adding 218 mg bovine bile extract, 58 mg phosphatidylcholine, 232 mg Tris maleate salt and 395 mg sodium chloride to 100 mL of ultra-purified water and stirring overnight at 37 °C. The medium pH was adjusted to 6.5 with 1 M NaOH before use. Approximately 100 mg of the drugs were mixed with 1.5 mL of the media in plastic tubes, and the suspensions were rotated at 20 rpm for 72 h. The solution was separated from undissolved drug by centrifugation, and aliquots from the saturated solution were filtered through 0.45 µm polyvinylidene difluoride (PVDF) filters. The solubility may potentially have been influenced by exposure to temperature since both, centrifugation and filtration, were conducted at room temperature.
The concentrations of DTX and BIC were determined using a reversed-phase high-performance liquid chromatography (HPLC) system (Dionex Corporation, CA, USA) equipped with an ASI-100 autosampler, Dionex Ultimate 300 UV-Visible detector and pump. Chromatographic separation was achieved using a XB-C18 Phenomenex Kinetex column of 2.6 μm (2.1 × 50 mm) (Torrance, CA, USA) at 30 °C. […] Peaks were analysed at 270 nm for BIC and 230 nm for DTX. […]

On the set-up of series [6]: method as in Valicherla et al. [19]. Particulars: oral drug delivery strategy for DTX (self-emulsifying drug delivery system), rats, ref Valicherla et al. [19]; cited from earlier work.
Setting [7] is: DTX in plasma, oral suspension, 30 mg/kg DTX, 30 mg/kg.
Where [8] appears, read: oral suspension, 30 mg/kg DTX, Fa = AUCoral/AUCIV × 100, mean ± SEM, 30 mg/kg.
Where [9] appears, read: intravenous bolus, 1 mg/rat (4–7 mg/kg).

With `CC(=O)O[C@@]12CO[C@@H]1C[C@H](O)[C@@]1(C)C(=O)[C@H](O)C3=C(C)[C@@H](OC(=O)[C@H](O)[C@@H](NC(=O)OC(C)(C)C)c4ccccc4)C[C@@](O)([C@@H](OC(=O)c4ccccc4)[C@H]21)C3(C)C` [Amorphous DTX, Docetaxel], the “physical stability (solid state by XRPD) after storage” value in series [1] is listed as “remained amorphous”. For the same molecule, in series [2] (setting [7]), the “DTX Cmax” value is recorded as 19 ng/mL, the “DTX Tmax” value was 6 h and the “DTX AUC” value worked out at 518 ± 113 ng/mL × 24h. Also, the “DTX Fa (absolute oral bioavailability)” value in series [2] (setting [8]) was 0.56 ± 0.12%. Besides, the DTX supersaturation behaviour result in series [3] (DTX in FaSSIF, up to 240 min) is “does not supersaturate”.
As for `CC(=O)O[C@@]12CO[C@@H]1C[C@H](O)[C@@]1(C)C(=O)[C@H](O)C3=C(C)[C@@H](OC(=O)[C@H](O)[C@@H](NC(=O)OC(C)(C)C)c4ccccc4)C[C@@](O)([C@@H](OC(=O)c4ccccc4)[C@H]21)C3(C)C` [DTX, Docetaxel], the Cmax in series [4] is 292 ng/mL; in series [2] (both sexes, Sprague Dawley, rat, plasma, iv, 1 mg, intravenous bolus, 1 mg/rat (4–7 mg/kg), read-out: DTX Cmax), 7210 ng/mL; in series [6], 125 ng/mL. The results for the relative bioavailability increase in series [4] and in series [6] were 4.6 fold and 3.2 fold, respectively. Also, the Tmax in series [2] (both sexes, Sprague Dawley, plasma, intravenous bolus, 1 mg/rat (4–7 mg/kg), read-out: DTX Tmax) is 0.5 h. Further, the “DTX AUC” value in series [2] (setting [9]) was 93,196 ± 12,626 ng/mL × 24h. Besides, the concentration in solution in series [5] (solubility at 72 h) came to 7.5 ± 1.2 µg/mL (≈ 9.28 µM).
Regarding `CC(=O)O[C@@]12CO[C@@H]1C[C@H](O)[C@@]1(C)C(=O)[C@H](O)C3=C(C)[C@@H](OC(=O)[C@H](O)[C@@H](NC(=O)OC(C)(C)C)c4ccccc4)C[C@@](O)([C@@H](OC(=O)c4ccccc4)[C@H]21)C3(C)C` [Crystalline DTX, Docetaxel], in series [2] (setting [7]), the “DTX Tmax” value is given as 4 h and the “DTX AUC” value is 185 ± 29 ng/mL × 24h. For the same molecule, in series [2] (DTX in plasma, oral suspension, 30 mg/kg DTX, listed as crystalline DTX, 30 mg/kg), the “DTX Tmax” value was “around 1 h”. Further, in series [2] (setting [8]), the “DTX Fa (absolute oral bioavailability)” value came to 0.20 ± 0.03%. Further, the maximum concentration (Cmax) in series [2] (both sexes, Sprague Dawley, rat, plasma, po, 30 mg/kg, DTX in plasma, oral suspension, 30 mg/kg DTX, read-out: DTX Cmax) came to 15 ng/mL.
On to `CC(O)(CS(=O)(=O)c1ccc(F)cc1)C(=O)Nc1ccc(C#N)c(C(F)(F)F)c1` (centres unmarked) [Amorphous BIC, bicalutamide], for which the “physical stability (solid state by XRPD) after storage” value in series [1] is “recrystallized”. For the same molecule, the “time after which the saturation solubility of BIC is reached” value in series [3] (BIC in FaSSIF) was 120 min.
As to `CC(O)(CS(=O)(=O)c1ccc(F)cc1)C(=O)Nc1ccc(C#N)c(C(F)(F)F)c1` (centres unmarked) [Crystalline BIC, bicalutamide], in series [2] (BIC in plasma, oral suspension, 16 mg/kg BIC), the “BIC AUC” value is given as 43.06 ± 4.79 µg/mL × 24h. Besides, the highest concentration (Cmax) in series [2] (both sexes, Sprague Dawley, rat, plasma, po, 16 mg/kg, BIC in plasma, oral suspension, 16 mg/kg BIC, read-out: BIC Cmax) was 1660 ng/mL. Further, the time of peak concentration (Tmax) in series [2] (both sexes, Sprague Dawley, rat, plasma, po, 16 mg/kg, BIC in plasma, oral suspension, 16 mg/kg BIC, read-out: BIC Tmax) came out at 6 h. In series [2] (both sexes, Sprague Dawley, rat, plasma, po, 16 mg/kg, BIC, oral suspension, 16 mg/kg BIC, Fa = AUCoral/AUCIV × 100, mean ± SEM, read-out: BIC Fa (absolute oral bioavailability)), the bioavailability amounted to 14 ± 1%.
For the molecule `CC(O)(CS(=O)(=O)c1ccc(F)cc1)C(=O)Nc1ccc(C#N)c(C(F)(F)F)c1` (centres unmarked) [BIC, bicalutamide], the Cmax in series [2] (both sexes, Sprague Dawley, rat, plasma, iv, 1 mg, intravenous bolus, 1 mg/rat (4–7 mg/kg), read-out: BIC Cmax) came to 11300 ng/mL. Moreover, the Tmax in series [2] (both sexes, Sprague Dawley, rat, plasma, iv, 1 mg, intravenous bolus, 1 mg/rat (4–7 mg/kg), read-out: BIC Tmax) turned out to be 0.5 h. Further, the BIC AUC in series [2] (setting [9]) stood at 317 µg/mL × 24h. In addition, in series [5], the concentration in solution (solubility at 72 h) was 3.05 ± 0.9 µg/mL (≈ 7.09 µM).

As a reminder, the Cmax is the maximum level reached in the sampled fluid or tissue. A word on the Tmax: it is the time from dosing to the highest level. Usually solubility stands for the dissolved amount per volume that the medium holds. What is called bioavailability is dose-corrected exposure relative to a reference, in per cent.

The record behind these values is publication PMC6369428, “Efflux Inhibitor Bicalutamide Increases Oral Bioavailability of the Poorly Soluble Efflux Substrate Docetaxel in Co-Amorphous Anti-Cancer Combination Therapy” (Molecules, 2019).
